Results from patent publication US20150105252A1, “SUBSTITUTED PYRAZOLES AS HERBICIDES” (E I DU PONT DE NEMOURS AND COMPANY, priority 2013, published 2015).

How the values were obtained:
Surinam grass = assay: Test F preemergence; assay type: in vivo, Brachiaria decumbens
From the text: (§1) Seeds of plant species selected from corn (Zea mays), soybean (Glycine max), velvetleaf (Abutilon theophrasti), lambsquarters (Chenopodium album), wild poinsettia (Euphorbia heterophylla), pigweed, palmer (palmer pigweed, Amaranthus palmeri), common waterhemp (Amaranthus rudis), surinam grass (Brachiaria decumbens), large crabgrass (Digitaria sanguinalis), crabgrass, Brazil (Brazilian crabgrass, Digitaria horizontalis), fall panicum (Panicum dichotomiflorum), giant foxtail (Setaria faberii), green foxtail (Setaria viridis), goosegrass (Eleusine indica), johnsongrass (Sorghum halepense), common ragweed (Ambrosia elation), barnyardgrass (Echinochloa crus-galli), southern sandbur (Cenchrus echinatus), arrowleaf sida (Sida rhombifolia), Italian ryegrass (Lolium multiflorum), dayflower, VA (Virginia (VA) dayflower, Commelina virginica), field bindweed (Convolvulus arvensis), cocklebur (common cocklebur, Xanthium strumarium), morningglory (Ipomoea coccinea), nightshade (eastern black nightshade, Solanum ptycanthum), kochia (Kochia scoparia), yellow nutsedge (Cyperus esculentus), and hairy beggarticks (Bidens pilosa), were planted into a silt loam soil and treated preemergence with test chemicals formulated in a non-phytotoxic solvent mixture which included a surfactant.
(§2) At the same time, plants from these crop and weed species and also horseweed (Canada horseweed, Conyza canadensis), smartweed (ladysthumb smartweed, Polygonum persicaria), waterhemp_RES1, (ALS & Triazine resistant common waterhemp, Amaranthus rudis), and waterhemp_RES2, (ALS & HPPD resistant common waterhemp, Amaranthus rudis) were treated with postemergence applications of test chemicals formulated in the same manner. Plants ranged in height from 2 to 18 cm for postemergence treatments (1- to 4-leaf stage). Treated plants and controls were maintained in a greenhouse for 14 to 21 days, after which time all species were compared to controls and visually evaluated. Plant response ratings, summarized in Table F, are based on a scale of 0 to 100 where 0 is no effect and 100 is complete control. A dash (-) response means no test result.

hairy beggarticks = assay: Test F preemergence; assay type: in vivo, Bidens pilosa
From the text: as §1, §2

corn = assay: Test F preemergence; assay type: in vivo, Zea mays
From the text: as §1, §2

barnyardgrass = assay: Test F preemergence; assay type: in vivo, Echinochloa crus-galli
From the text: as §1, §2

dayflower, VA = assay: Test F preemergence; assay type: in vivo, Commelina virginica
From the text: as §1, §2

Italian ryegrass = assay: Test A postemergence; assay type: in vivo, Lolium multiflorum
How it was run: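 After sowing in a sand–loam mix, pots received compound preemergence by directed soil spray, or postemergence once plants reached the one- to two-leaf stage (2–10 cm). Formulation contained surfactant in a non-phytotoxic solvent. Injury was scored visually after ~10 greenhouse days, 0–100 scale.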

canarygrass = assay: Test C postemergence; assay type: in vivo, Phalaris minor; conditions: for Canarygrass plant response rating: scale 0 to 100
From the text: (§3) Seeds of plant species selected from blackgrass (Alopecurus myosuroides), ryegrass, Italian (Italian ryegrass, Lolium multiflorum), wheat (winter wheat, Triticum aestivum), galium (catchweed bedstraw, Galium aparine), corn (Zea mays), crabgrass, large (large crabgrass, Digitaria sanguinalis), foxtail, giant (giant foxtail, Setaria faberii), johnsongrass (Sorghum halepense), lambsquarters (Chenopodium album), morningglory (Ipomoea coccinea), nutsedge, yellow (yellow nutsedge, Cyperus esculentus), pigweed (redroot pigweed, Amaranthus retroflexus), ragweed (common ragweed, Ambrosia elation), soybean (Glycine max), barnyardgrass (Echinochloa crus-galli), oilseed rape (Brassica napus), waterhemp (common waterhemp, Amaranthus rudis), oat, wild (wild oat, Avena fatua), kochia (Kochia scoparia), Surinam grass (Brachiaria decumbens), foxtail, green (green foxtail, Setaria viridis), goosegrass (Eleusine indica), bromegrass, downy (downy bromegrass, Bromus tectorum), nightshade (eastern black nightshade, Solanum ptycanthum), cocklebur (common cocklebur, Xanthium strumarium), cupgrass, woolly (woolly cupgrass, Eriochloa villosa), bermudagrass (Cynodon dactylon), sunflower, (common oilseed sunflower, Helianthus annuus), Russian thistle (Salsola kali), and velvetleaf (Abutilon theophrasti) were planted into a blend of loam soil and sand and treated preemergence with test chemicals formulated in a non-phytotoxic solvent mixture which included a surfactant.
(§4) At the same time, plants selected from these crop and weed species and also chickweed (common chickweed, Stellaria media), canarygrass (littleseed canarygrass, Phalaris minor), and deadnettle (henbit deadnettle, Lamium amplexicaule), were planted in pots containing Redi-Earth® planting medium (Scotts Company, 14111 Scottslawn Road, Marysville, Ohio 43041) comprising spaghnum peat moss, vermiculite, wetting agent and starter nutrients and treated with postemergence applications of test chemicals formulated in the same manner. Plants ranged in height from 2 to 18 cm (1- to 4-leaf stage) for postemergence treatments. Treated plants and controls were maintained in a greenhouse for 13 to 15 days, after which time all species were compared to controls and visually evaluated. Plant response ratings, summarized in Table C, are based on a scale of 0 to 100 where 0 is no effect and 100 is complete control. A dash (-) response means no test result.

windgrass = assay: Test C postemergence; assay type: in vivo, Apera spica-venti; conditions: 62 g ai/ha, scale 0 to 100
bermudagrass = assay: Test C preemergence; assay type: in vivo, Cynodon dactylon; conditions: for Plant response rating (scale of 0 to 100), Bermudagrass: Preemergence, 250 g ai/ha; for Bermudagrass plant response rating / Plant response rating, Bermudagrass: preemergence; for Plant response rating, Bermudagrass: 62 g ai/ha, scale 0 to 100, 0 = no effect, 100 = complete control
From the text: as §3, §4

[1] = Preemergence, 31 g ai/ha, scale 0 to 100
[2] = Preemergence, 62 g ai/ha, scale 0 to 100
[3] = Preemergence, 125 g ai/ha, scale 0 to 100
[4] = preemergence, 8 g ai/ha, scale 0 to 100, 100 is complete control
[5] = preemergence, 16 g ai/ha, scale 0 to 100, 100 is complete control
[6] = Postemergence, 500 g ai/ha, 0 to 100 scale (0 no effect, 100 complete control)
[7] = postemergence, 125 g ai/ha, about 10 days, visual rating on 0 to 100 scale (0 no effect, 100 complete control)
[8] = Preemergence, 250 g ai/ha, scale 0 to 100
[9] = postemergence, 250 g ai/ha, scale 0 to 100 (0 no effect, 100 complete control)
[10] = postemergence, 62 g ai/ha, scale 0 to 100, 0 no effect, 100 complete control
[11] = postemergence, 125 g ai/ha, scale 0 to 100, 0 no effect, 100 complete control
[12] = 31 g ai/ha, scale 0 to 100 (0 no effect, 100 complete control), 13 to 15 days
[13] = 125 g ai/ha, scale 0 to 100, 0 is no effect, 100 is complete control

## CCc1cc(-c2ccc(C(F)(F)F)cc2)nn1Cc1ccnc(C(F)(F)F)c1 [Compound 110]
Surinam grass; [1]
  Plant response rating, Surinam Grass: 5
Surinam grass; [2]
  Plant response rating, Surinam Grass: 5
Surinam grass; [3]
  Plant response rating, Surinam Grass: 10
Surinam grass; [4]
  Plant response rating, Surinam Grass: 0
Surinam grass; [5]
  Plant response rating, Surinam Grass: 0
Hairy beggarticks; [1]
  Plant response rating, Hairy Beggarticks: 35
Hairy beggarticks; [2]
  Plant response rating, Hairy Beggarticks: 30
Hairy beggarticks; [3]
  Plant response rating, Hairy Beggarticks: 50
Hairy beggarticks; [4]
  Plant response rating, Hairy Beggarticks: 50
Hairy beggarticks; [5]
  Plant response rating, Hairy Beggarticks: 35
corn; [1]
  Plant response rating, Corn: 0
corn; [2]
  Plant response rating, Corn: 0
corn; [3]
  Plant response rating, Corn: 15
corn; [4]
  Plant response rating, Corn: 0
corn; [5]
  Plant response rating, Corn: 0
barnyardgrass; [1]
  Plant response rating, Barnyardgrass: 0
barnyardgrass; [2]
  Plant response rating, Barnyardgrass: 10
barnyardgrass; [3]
  Plant response rating, Barnyardgrass: 35
barnyardgrass; [4]
  Plant response rating, Barnyardgrass: 0
barnyardgrass; [5]
  Plant response rating, Barnyardgrass: 0
dayflower, VA; [1]
  Plant response rating, Dayflower, VA: 5
dayflower, VA; [2]
  Plant response rating, Dayflower, VA: 10
dayflower, VA; [3]
  Plant response rating, Dayflower, VA: 65
dayflower, VA; [4]
  Plant response rating, Dayflower, VA: 0
dayflower, VA; [5]
  Plant response rating, Dayflower, VA: 0

## CCc1cc(C(=O)NOC(C)C)nn1Cc1ccnc(OC(F)F)c1 [Compound 126]
Italian ryegrass; [6]
  Italian Ryegrass plant response rating: 100
Italian ryegrass; [7]
  Italian Ryegrass plant response rating: 90

## CCc1cc(C(=O)NCC(F)(F)F)nn1Cc1ccnc(Br)c1 [Compound 224]
Surinam grass; [2]
  Plant response rating, Surinam Grass: 70
Surinam grass; [3]
  Plant response rating, Surinam Grass: 50
Surinam grass; [8]
  Plant response rating, Surinam Grass: 65
Hairy beggarticks; [2]
  Plant response rating, Hairy Beggarticks: 0
Hairy beggarticks; [3]
  Plant response rating, Hairy Beggarticks: 0
Hairy beggarticks; [8]
  Plant response rating, Hairy Beggarticks: 10
corn; [2]
  Plant response rating, Corn: 0
corn; [3]
  Plant response rating, Corn: 20
corn; [8]
  Plant response rating, Corn: 40
barnyardgrass; [2]
  Plant response rating, Barnyardgrass: 0
barnyardgrass; [3]
  Plant response rating, Barnyardgrass: 40
barnyardgrass; [8]
  Plant response rating, Barnyardgrass: 70
dayflower, VA; [2]
  Plant response rating, Dayflower, VA: 0
dayflower, VA; [3]
  Plant response rating, Dayflower, VA: 40
dayflower, VA; [8]
  Plant response rating, Dayflower, VA: 85

## CCCc1cc(C(=O)NC2CC2)nn1Cc1ccnc(OC(F)F)c1 [Compound 205]
Italian ryegrass; Postemergence, 125 g ai/ha, 0 to 100 scale, 0 no effect, 100 complete control
  Italian Ryegrass plant response rating: 70
Italian ryegrass; [6]
  Italian Ryegrass plant response rating: 100

## CCCc1cc(C(=O)NCC(F)(F)F)nn1Cc1ccnc(OC(F)F)c1 [Compound 127]
Italian ryegrass; [6]
  Italian Ryegrass plant response rating: 90
Italian ryegrass; [7]
  Italian Ryegrass plant response rating: 80

## CCOc1cc(C(=O)NCC(F)(F)F)nn1Cc1ccnc(OC(F)F)c1 [Compound 128]
Italian ryegrass; [6]
  Italian Ryegrass plant response rating: 100
Italian ryegrass; [7]
  Italian Ryegrass plant response rating: 90

## CCCc1cc(C(=O)NC(C)C)nn1Cc1cc(C(F)(F)F)nn1C [Compound 201]
Surinam grass; [2]
  Plant response rating, Surinam Grass: 0
Surinam grass; [3]
  Plant response rating, Surinam Grass: 35
Surinam grass; [8]
  Plant response rating, Surinam Grass: 65
Surinam grass; [5]
  Plant response rating, Surinam Grass: 0
Hairy beggarticks; [2]
  Plant response rating, Hairy Beggarticks: 20
Hairy beggarticks; [3]
  Plant response rating, Hairy Beggarticks: 35
Hairy beggarticks; [8]
  Plant response rating, Hairy Beggarticks: 40
Hairy beggarticks; [5]
  Plant response rating, Hairy Beggarticks: 0
corn; [2]
  Plant response rating, Corn: 10
corn; [3]
  Plant response rating, Corn: 20
corn; [8]
  Plant response rating, Corn: 60
corn; [5]
  Plant response rating, Corn: 0
barnyardgrass; Preemergence, 16 g ai/ha, scale 0 to 100
  Plant response rating, Barnyardgrass: 0
barnyardgrass; [2]
  Plant response rating, Barnyardgrass: 10
barnyardgrass; [3]
  Plant response rating, Barnyardgrass: 85
barnyardgrass; [8]
  Plant response rating, Barnyardgrass: 95
barnyardgrass; [5]
  Plant response rating, Barnyardgrass: 0
dayflower, VA; [2]
  Plant response rating, Dayflower, VA: 0
dayflower, VA; [3]
  Plant response rating, Dayflower, VA: 35
dayflower, VA; [8]
  Plant response rating, Dayflower, VA: 65
dayflower, VA; [5]
  Plant response rating, Dayflower, VA: 0

## CCc1cc(C(=O)NCC(F)(F)F)nn1Cc1cccc(OC(F)(F)F)c1 [Compound 20]
canarygrass; Postemergence, 31 g ai/ha
  Canarygrass plant response rating: 5
canarygrass; [9]
  Plant response rating, Canarygrass: 15
canarygrass; [10]
  Plant response rating, Canarygrass: 10
canarygrass; [11]
  Plant response rating, Canarygrass: 15
windgrass
  Windgrass plant response rating: 10

## CCc1cc(C(=O)NOC(C)C)nn1Cc1cccc(OC(F)(F)F)c1 [Compound 70]
canarygrass; Postemergence, 31 g ai/ha
  Canarygrass plant response rating: 0
canarygrass; [9]
  Plant response rating, Canarygrass: 60
canarygrass; [10]
  Plant response rating, Canarygrass: 5
canarygrass; [11]
  Plant response rating, Canarygrass: 15
windgrass
  Windgrass plant response rating: 25
bermudagrass
  Plant response rating (scale of 0 to 100), Bermudagrass: 100
bermudagrass; [12]
  Bermudagrass plant response rating: 98
bermudagrass; 13 to 15 days
  Plant response rating, Bermudagrass: 98
bermudagrass; [13]
  Bermudagrass plant response rating: 100

## CCCNC(=O)c1cc(CC)n(Cc2cccc(OC(F)(F)F)c2)n1 [Compound 27]
canarygrass; Postemergence, 31 g ai/ha
  Canarygrass plant response rating: 5
canarygrass; [9]
  Plant response rating, Canarygrass: 10
canarygrass; [10]
  Plant response rating, Canarygrass: 5
canarygrass; [11]
  Plant response rating, Canarygrass: 10
windgrass
  Windgrass plant response rating: 20

## CCCNC(=O)c1cc(OCC)n(Cc2ccnc(OC(F)F)c2)n1 [Compound 136]
Italian ryegrass; [6]
  Italian Ryegrass plant response rating: 90
Italian ryegrass; [7]
  Italian Ryegrass plant response rating: 80

## CCONC(=O)c1cc(CC)n(Cc2cccc(OC(F)(F)F)c2)n1 [Compound 72]
canarygrass; Postemergence, 31 g ai/ha
  Canarygrass plant response rating: 5
canarygrass; postemergence, 62 g ai/ha
  Canarygrass plant response rating: 10
canarygrass; [9]
  Plant response rating, Canarygrass: 30
canarygrass; [11]
  Plant response rating, Canarygrass: 20
windgrass
  Windgrass plant response rating: 20
bermudagrass
  Plant response rating (scale of 0 to 100), Bermudagrass: 100
bermudagrass; [12]
  Bermudagrass plant response rating: 85
bermudagrass; 13 to 15 days
  Plant response rating, Bermudagrass: 98
bermudagrass; [13]
  Bermudagrass plant response rating: 98

## Cc1cc(C(=O)NCC(F)(F)F)nn1Cc1ccnc(C(F)(F)F)c1 [Compound 74]
canarygrass; Postemergence, 31 g ai/ha
  Canarygrass plant response rating: 0
canarygrass; postemergence, 62 g ai/ha
  Canarygrass plant response rating: 0
canarygrass; [9]
  Plant response rating, Canarygrass: 5
canarygrass; [11]
  Plant response rating, Canarygrass: 0
windgrass
  Windgrass plant response rating: 0
bermudagrass
  Plant response rating (scale of 0 to 100), Bermudagrass: 98
bermudagrass; [12]
  Bermudagrass plant response rating: 50
bermudagrass; 13 to 15 days
  Plant response rating, Bermudagrass: 90
bermudagrass; [13]
  Bermudagrass plant response rating: 98
